In patent US11407757B2, “Heterocycle compounds as Tyro3, Axl and MerTK (TAM) family of receptor tyrosine kinase inhibitors” (Development Center for Biotechnology, priority 2017, dated 2022):
Like-named read-outs stand apart in the source and are kept apart here.

What was measured:
Axl kinase = Axl kinase (Homo sapiens (Human), UniProt P30530); test: Axl kinase assay (AlphaScreen); type: biochemical; conditions: activity level class
Mer kinase = Mer kinase (Homo sapiens (Human), UniProt Q12866); test: Mer kinase assay (AlphaScreen); conditions: read-out: Mer kinase IC50; activity level class
Met kinase = Met kinase (Homo sapiens, UniProt P08581); test: Met kinase assay (AlphaScreen); type: biochemical
[1] = tested on: Gas6 ligand induced AKT phosphorylation; test: Gas6 ligand induced AKT phosphorylation, western blotting in H1299 NSCLC cells; type: cell-based; conditions: Homo sapiens, NCI-H1299, at 100 nM treatment, 100 ng/mL Gas6, read-out: inhibition activity against Gas6 ligand induced AKT phosphorylation
[2] = activity level class, read-out: Met kinase IC50

Row | IC50 (Axl kinase) [µM] | IC50 (Mer kinase) [µM] | IC50 (Met kinase; [2]) [µM] | SMILES | IC50 (Met kinase) [µM] | inhibition at 0.1 µM [1] [%]
1 | < 0.03 | > 1 | > 1 | Cc1nc2ccc(-c3c[nH]c4nc(Nc5ccc(CN6CCN(C)CC6)cc5)nc(OCC5CCCO5)c34)cc2o1 (centres unmarked) [Compound 67, 5-(2-methylbenzo[d]oxazol-6-yl)-N-(4-((4-methylpiperazin-1-yl)methyl)phenyl)-4-((tetrahydrofuran-2-yl)methoxy)-7H-pyrrolo [2,3-d]pyrimidin-2-amine] |  | > 50
2 | < 0.03 | > 1 | > 1 | COCCOc1nc(Nc2ccc(CN3CCN(C)CC3)cc2)nc2[nH]cc(-c3ccc(NC(=O)c4cc(C)n(C)n4)cc3)c12 [Compound 76, N-(4-(4-(2-methoxyethoxy)-2-((4-((4-methylpiperazin-1-yl)methyl)phenyl)amino)-7H-pyrrolo[2,3-d]pyrimidin-5-yl)phenyl)-1,5-dimethyl-7H-pyrazole-3-carboxamide] |  | > 50
3 |  | > 1 |  | COCCOc1nc(Nc2ccc(CN3CCN(C)CC3)cc2)nc2[nH]cc(-c3ccc(S(=O)(=O)C(C)C)cc3)c12 [Compound 89, 5-(4-(isopropylsulfonyl)phenyl)-4-(2-methoxyethoxy)-N-(4-((4-methylpiperazin-1-yl)methyl)phenyl)-7H-pyrrolo[2,3-d]pyrimidin-2-amine] |  | 
4 |  | > 1 |  | COCCOc1nc(Nc2ccc(CN3CCN(C)CC3)cc2)nc2[nH]cc(-c3ccc(OCc4ccccc4)cc3F)c12 [Compound 90, 5-(4-(benzyloxy)-2-fluorophenyl)-4-(2-methoxyethoxy)-N-(4-((4-methylpiperazin-1-yl)methyl)phenyl)-7H-pyrrolo[2,3-d]pyrimidin-2-amine] |  | 
5 | < 0.03 | > 1 | > 1 | COCCOc1nc(Nc2ccc(CN3CCN(C)CC3)cc2)nc2[nH]cc(-c3ccc(OCc4ccncc4)cc3F)c12 [Compound 93, 5-(2-fluoro-4-(pyridin-4-ylmethoxy)phenyl)-4-(2-methoxyethoxy)-N-(4-((4-methylpiperazin-1-yl)methyl)phenyl)-7H-pyrrolo[2,3-d]pyrimidin-2-amine] |  | > 50
6 | < 0.03 | > 1 | > 1 | COCCOc1nc(Nc2ccc(CN3CCN(C)CC3)cc2)nc2[nH]cc(-c3ccc(S(=O)(=O)N4CCC4)cc3)c12 [Compound 94, 5-(4-(azetidin-1-ylsulfonyl)phenyl)-4-(2-methoxyethoxy)-N-(4-((4-methylpiperazin-1-yl)methyl)phenyl)-7H-pyrrolo[2,3-d]pyrimidin-2-amine] |  | 
7 | < 0.03 | > 1 | > 1 | COCCOc1nc(Nc2ccc(CN3CCN(C)CC3)cc2)nc2[nH]cc(-c3ccc(OCc4cccnc4)cc3F)c12 [Compound 95, 5-(2-fluoro-4-(pyridin-3-ylmethoxy)phenyl)-4-(2-methoxyethoxy)-N-(4-((4-methylpiperazin-1-yl)methyl)phenyl)-7H-pyrrolo[2,3-d]pyrimidin-2-amine] |  | 
8 |  | > 1 |  | COCCOc1nc(Nc2ccc(CN3CCN(C)CC3)cc2)nc2[nH]cc(-c3ccc(OCc4cnccc4OC)cc3F)c12 [Compound 99, 5-(2-fluoro-4-((4-methoxypyridin-3-yl)methoxy)phenyl)-4-(2-methoxyethoxy)-N-(4-((4-methylpiperazin-1-yl)methyl)phenyl)-7H-pyrrolo[2,3-d]pyrimidin-2-amine] |  | 
9 | < 0.03 | > 1 | > 1 | COCCOc1nc(Nc2ccc(CN3CCN(C)CC3)cc2)nc2[nH]cc(-c3ccc(OCc4cncc(OC)c4)cc3F)c12 [Compound 100, 5-(2-fluoro-4-((5-methoxypyridin-3-yl)methoxy)phenyl)-4-(2-methoxyethoxy)-N-(4-((4-methylpiperazin-1-yl)methyl)phenyl)-7H-pyrrolo[2,3-d]pyrimidin-2-amine] |  | 
10 |  | > 1 |  | COCCOc1nc(Nc2ccc(CN3CCN(C)CC3)cc2)nc2[nH]cc(-c3ccc(S(=O)(=O)N4CCN(C)CC4)cc3)c12 [Compound 102, 4-(2-methoxyethoxy)-N-(4-((4-methylpiperazin-1-yl)methyl)phenyl)-5-(4-((4-methylpiperazin-1-yl)sulfonyl)phenyl)-7H-pyrrolo[2,3-d]pyrimidin-2-amine] |  | 

Row | SMILES | IC50 (Axl kinase) [µM] | IC50 (Mer kinase) [µM] | IC50 (Met kinase; [2]) [µM] | IC50 (Met kinase) [µM] | inhibition at 0.1 µM [1] [%]
11 | COc1nc(Nc2ccc(CN3CCC(C)CC3)cc2)nc2[nH]cc(-c3ccc(NS(=O)(=O)c4cc(F)ccc4F)cc3)c12 [Compound 2, 2,5-difluoro-N-(4-(4-methoxy-2-((4-((4-methylpiperidin-1-yl)methyl)phenyl)amino)-7H-pyrrolo[2,3-d]pyrimidin-5-yl)phenyl)benzene-sulfonamide] | < 0.03 | < 0.03 |  | 0.1 to 0.4 | 
12 | COCCOc1nc(Nc2ccc(CN3CCN(C)CC3)cc2)nc2[nH]cc(-c3ccc(O)cc3F)c12 [Compound 96, 3-fluoro-4-(4-(2-methoxyethoxy)-2-((4-((4-methylpiperazin-1-yl)methyl)phenyl)amino)-7H-pyrrolo[2,3-d]pyrimidin-5-yl)phenol] | < 0.03 | < 0.03 |  | 0.1 to 0.4 | 
13 | COCCOc1nc(Nc2ccc(CN3CCN(C)CC3)cc2)nc2[nH]cc(-c3ccc(S(=O)(=O)N4CCCCC4)cc3)c12 [Compound 98, 4-(2-methoxyethoxy)-N-(4-((4-methylpiperazin-1-yl)methyl)phenyl)-5-(4-(piperidin-1-ylsulfonyl)phenyl)-7H-pyrrolo[2,3-d]pyrimidin-2-amine] | < 0.03 | > 1 |  | 0.4 to 1 | 
14 | COCCOc1nc(Nc2ccc(CN3CCC(C)CC3)cc2)nc2[nH]cc(-c3ccc(OCc4ccccn4)cc3F)c12 [Compound 109, 5-(2-fluoro-4-(pyridin-2-ylmethoxy)phenyl)-4-(2-methoxyethoxy)-N-(4-((4-methylpiperidin-1-yl)methyl)phenyl)-7H-pyrrolo[2,3-d]pyrimidin-2-amine] | < 0.03 | < 0.03 |  | 0.4 to 1 | > 50
